Test results reported in ChEMBL document CHEMBL3124792, “Discovery and preclinical characterization of the cyclopropylindolobenzazepine BMS-791325, a potent allosteric inhibitor of the hepatitis C virus NS5B polymerase” (J Med Chem, 2014).
Converted amounts (≈) assume the structure as drawn.

Experiments:
[1] = tested on: Hepatitis C virus; assay: Ratio of EC50 for Hepatitis C virus Con1 genotype 1b in presence of 40% human serum to EC50 for Hepatitis C virus Con1 genotype 1b; type: functional, Hepacivirus hominis, isolate Con1
[2] = tested on: Hepatitis C virus; assay: Antiviral activity against Hepatitis C virus Con1 genotype 1b infected in human HuH7 cells after 3 days by FRET assay in presence of 40% human serum; type: functional, organism-based, Hepacivirus hominis; details: isolate Con1, Huh-7, 72 h
[3] = tested on: Hepatitis C virus; assay: Antiviral activity against Hepatitis C virus H77c genotype 1a infected in human HuH7 cells after 3 days by FRET assay; type: functional, organism-based, Hepacivirus hominis; details: genotype 1a H77, Huh-7, 72 h
[4] = Cytotoxicity against human HuH7 cells by Alamar blue assay; type: cell-based; details: Huh-7 cells
[5] = target: T1, Nuclear receptor subfamily 1 group I member 2 (Homo sapiens, UniProt O75469); assay: Transactivation of human PXR expressed in human HepG2 cells by luciferase reporter gene assay; type: cell-based
T1 sequence (O75469 whole entry): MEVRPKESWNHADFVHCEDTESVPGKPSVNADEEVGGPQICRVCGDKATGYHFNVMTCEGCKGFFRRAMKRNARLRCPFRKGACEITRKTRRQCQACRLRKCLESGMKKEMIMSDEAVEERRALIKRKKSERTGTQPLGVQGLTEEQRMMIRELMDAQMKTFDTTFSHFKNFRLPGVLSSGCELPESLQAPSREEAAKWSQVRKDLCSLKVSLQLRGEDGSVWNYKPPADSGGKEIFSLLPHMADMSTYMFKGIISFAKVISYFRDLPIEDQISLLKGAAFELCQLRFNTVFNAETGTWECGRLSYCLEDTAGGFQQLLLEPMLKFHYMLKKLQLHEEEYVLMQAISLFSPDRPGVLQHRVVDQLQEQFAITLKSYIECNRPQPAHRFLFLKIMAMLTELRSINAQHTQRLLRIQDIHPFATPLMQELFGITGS

[6] = target: T2, PXR (NR1I2) (Homo sapiens, UniProt O75469); assay: Transactivation of human PXR expressed in human HepG2 cells by luciferase reporter gene assay relative to control; type: cell-based; details: HepG2 cells expressing human PXR, read-out: %max
T2 sequence (O75469 whole entry): T1 sequence (O75469 whole entry)

[7] = tested on: Hepatitis C virus; assay: Antiviral activity against Hepatitis C virus Con1 genotype 1b infected in human HuH7 cells after 3 days by FRET assay; type: functional, organism-based, Hepacivirus hominis; details: isolate Con1, Huh-7, 72 h
[8] = Solubility of the compound in amorphous form in phosphate buffer at pH 6.5; type: physicochemical
[9] = AUC (0 to 4 hrs) in rat at 10 mg/kg, po; type: ADME, organism-based; set-up: time < 4 hr, dose 10 mg/kg, route oral; details: plasma
[10] = tested on: Liver microsome; details: rat, microsomes
[11] = Plasma concentration in rat at 5 mg/kg, iv after 4 hrs; type: ADME, organism-based; set-up: dose 5 mg/kg, route intravenous
[12] = tested on: Liver microsome; details: human, microsomes
[13] = Drug uptake in rat liver at 5 mg/kg, iv after 4 hrs; type: ADME, organism-based; set-up: dose 5 mg/kg, route intravenous; details: read-out: Drug uptake
[14] = Drug uptake in rat liver at 10 mg/kg, po after 4 hrs; type: ADME, organism-based; set-up: dose 10 mg/kg, route oral; details: read-out: Drug uptake
[15] = Plasma clearance in rat at 5 mg/kg, iv; type: ADME, organism-based; set-up: dose 5 mg/kg, route intravenous
[16] = AUC (0 to 4 hrs) in rat at 5 mg/kg, iv; type: ADME, organism-based; set-up: time < 4 hr, dose 5 mg/kg, route intravenous; details: plasma
[17] = Plasma concentration in rat at 10 mg/kg, po after 4 hrs; type: ADME, organism-based; set-up: dose 10 mg/kg, route oral
[18] = Permeability of the compound at pH 7.4 by PAMPA; type: physicochemical; details: read-out: permeability
[19] = target: Sodium channel protein type 5 subunit alpha (Homo sapiens, UniProt Q14524); assay: Inhibition of human NaV1.5 expressed in HEK293 cells by fluorescence-based thallium flux assay; type: cell-based
[20] = target: T3, Cytochrome P450 1A2 (Homo sapiens, UniProt P05177); assay: Inhibition of CYP1A2 in human liver microsomes after 30 mins in presence of NADPH; type: ADME
T3 sequence (P05177 whole entry): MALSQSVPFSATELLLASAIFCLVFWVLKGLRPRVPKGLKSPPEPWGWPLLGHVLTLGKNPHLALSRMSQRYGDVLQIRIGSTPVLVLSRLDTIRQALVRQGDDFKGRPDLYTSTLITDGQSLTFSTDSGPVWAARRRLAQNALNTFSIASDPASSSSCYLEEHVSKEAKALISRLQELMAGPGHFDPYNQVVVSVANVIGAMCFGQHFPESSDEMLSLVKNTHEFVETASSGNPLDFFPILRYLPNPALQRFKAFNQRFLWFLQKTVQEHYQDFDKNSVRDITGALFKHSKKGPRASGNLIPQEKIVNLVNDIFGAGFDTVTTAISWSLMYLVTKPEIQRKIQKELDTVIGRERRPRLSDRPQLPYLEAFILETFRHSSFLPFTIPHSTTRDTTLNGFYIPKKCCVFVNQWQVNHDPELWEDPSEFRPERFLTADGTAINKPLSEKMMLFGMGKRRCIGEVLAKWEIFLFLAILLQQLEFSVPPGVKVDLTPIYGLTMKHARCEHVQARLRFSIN

[21] = target: Voltage-gated inwardly rectifying potassium channel KCNH2 (Homo sapiens, UniProt Q12809); assay: Inhibition of human ERG by fluorescence-based thallium flux assay
[22] = target: Cytochrome P450 2C19 (Homo sapiens, UniProt P33261); assay: Inhibition of CYP2C19 in human liver microsomes after 30 mins in presence of NADPH; type: ADME
[23] = target: Cytochrome P450 3A4 (Homo sapiens, UniProt P08684); assay: Inhibition of CYP3A4 in human liver microsomes using benzyloxyresorufin as substrate after 30 mins in presence of NADPH; type: ADME
[24] = target: Cytochrome P450 2D6 (Homo sapiens, UniProt P10635); assay: Inhibition of CYP2D6 in human liver microsomes after 30 mins in presence of NADPH; type: ADME
[25] = tested on: HepG2; assay: Cytotoxicity against human HepG2 cells; type: cell-based
[26] = target: Cytochrome P450 2C9 (Homo sapiens, UniProt P11712); assay: Inhibition of CYP2C9 in human liver microsomes after 30 mins in presence of NADPH; type: ADME

Sequence of Cytochrome P450 2C19 (P33261 whole entry): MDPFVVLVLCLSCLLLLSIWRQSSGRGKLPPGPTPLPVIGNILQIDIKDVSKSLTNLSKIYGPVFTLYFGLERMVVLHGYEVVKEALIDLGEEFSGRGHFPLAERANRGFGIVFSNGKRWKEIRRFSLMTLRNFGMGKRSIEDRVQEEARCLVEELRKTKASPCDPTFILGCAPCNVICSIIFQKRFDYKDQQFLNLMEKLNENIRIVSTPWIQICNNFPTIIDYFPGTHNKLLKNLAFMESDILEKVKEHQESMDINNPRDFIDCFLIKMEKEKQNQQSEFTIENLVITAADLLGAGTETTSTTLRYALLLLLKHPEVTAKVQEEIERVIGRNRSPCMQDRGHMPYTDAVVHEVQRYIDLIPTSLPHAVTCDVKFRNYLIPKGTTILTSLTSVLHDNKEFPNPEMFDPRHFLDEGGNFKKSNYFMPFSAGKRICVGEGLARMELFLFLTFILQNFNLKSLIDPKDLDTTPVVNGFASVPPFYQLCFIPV
Sequence of Sodium channel protein type 5 subunit alpha (Q14524 whole entry): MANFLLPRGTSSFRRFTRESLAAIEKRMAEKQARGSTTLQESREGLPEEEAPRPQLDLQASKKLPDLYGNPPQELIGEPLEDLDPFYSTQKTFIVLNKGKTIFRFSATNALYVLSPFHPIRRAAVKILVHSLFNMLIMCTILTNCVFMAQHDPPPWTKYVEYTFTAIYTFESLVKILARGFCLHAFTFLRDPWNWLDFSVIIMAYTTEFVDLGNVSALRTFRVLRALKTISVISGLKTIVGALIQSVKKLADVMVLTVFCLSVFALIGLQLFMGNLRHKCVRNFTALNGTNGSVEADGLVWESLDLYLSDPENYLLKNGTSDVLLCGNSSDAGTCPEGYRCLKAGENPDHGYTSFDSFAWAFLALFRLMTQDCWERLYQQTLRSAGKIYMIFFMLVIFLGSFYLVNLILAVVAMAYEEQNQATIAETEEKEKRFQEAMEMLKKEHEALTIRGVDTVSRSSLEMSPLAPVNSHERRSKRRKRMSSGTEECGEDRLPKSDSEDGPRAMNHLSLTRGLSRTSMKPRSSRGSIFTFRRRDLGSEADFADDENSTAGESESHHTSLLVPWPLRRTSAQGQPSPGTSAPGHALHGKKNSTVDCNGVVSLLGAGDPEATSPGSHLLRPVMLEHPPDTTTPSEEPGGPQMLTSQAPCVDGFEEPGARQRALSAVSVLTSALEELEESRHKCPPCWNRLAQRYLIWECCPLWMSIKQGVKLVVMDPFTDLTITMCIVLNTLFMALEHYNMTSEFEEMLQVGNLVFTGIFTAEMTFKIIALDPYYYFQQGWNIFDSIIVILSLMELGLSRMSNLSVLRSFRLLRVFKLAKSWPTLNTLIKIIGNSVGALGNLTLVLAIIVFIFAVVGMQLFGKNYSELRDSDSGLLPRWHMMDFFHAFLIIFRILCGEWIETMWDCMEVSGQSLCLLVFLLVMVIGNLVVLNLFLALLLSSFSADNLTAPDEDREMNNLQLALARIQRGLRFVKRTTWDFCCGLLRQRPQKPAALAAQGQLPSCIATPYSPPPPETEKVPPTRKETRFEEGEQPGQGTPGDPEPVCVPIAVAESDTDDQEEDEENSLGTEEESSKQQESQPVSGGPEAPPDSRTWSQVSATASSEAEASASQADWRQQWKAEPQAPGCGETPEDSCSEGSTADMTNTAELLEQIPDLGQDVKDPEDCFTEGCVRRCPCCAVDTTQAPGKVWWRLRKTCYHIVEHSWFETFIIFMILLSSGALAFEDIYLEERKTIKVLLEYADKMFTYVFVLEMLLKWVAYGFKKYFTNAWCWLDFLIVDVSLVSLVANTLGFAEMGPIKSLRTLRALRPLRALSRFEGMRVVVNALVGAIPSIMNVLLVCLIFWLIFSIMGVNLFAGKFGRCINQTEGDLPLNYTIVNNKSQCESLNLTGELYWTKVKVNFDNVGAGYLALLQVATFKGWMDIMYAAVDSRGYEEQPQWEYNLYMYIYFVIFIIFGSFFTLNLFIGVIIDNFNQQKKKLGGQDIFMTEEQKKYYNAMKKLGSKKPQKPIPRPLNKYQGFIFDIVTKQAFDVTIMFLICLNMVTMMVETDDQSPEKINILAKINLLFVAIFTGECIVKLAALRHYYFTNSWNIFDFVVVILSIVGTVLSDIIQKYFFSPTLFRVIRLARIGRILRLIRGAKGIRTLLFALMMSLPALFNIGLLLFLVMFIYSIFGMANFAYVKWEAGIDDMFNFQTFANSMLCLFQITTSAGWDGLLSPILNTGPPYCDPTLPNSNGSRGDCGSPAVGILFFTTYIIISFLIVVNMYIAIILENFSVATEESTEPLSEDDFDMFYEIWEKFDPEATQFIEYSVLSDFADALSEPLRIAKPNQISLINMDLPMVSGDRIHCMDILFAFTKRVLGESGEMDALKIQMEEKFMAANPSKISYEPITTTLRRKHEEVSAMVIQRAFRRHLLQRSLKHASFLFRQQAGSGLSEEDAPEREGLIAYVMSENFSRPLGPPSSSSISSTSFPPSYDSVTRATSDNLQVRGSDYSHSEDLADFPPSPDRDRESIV
Sequence of Voltage-gated inwardly rectifying potassium channel KCNH2 (Q12809 whole entry): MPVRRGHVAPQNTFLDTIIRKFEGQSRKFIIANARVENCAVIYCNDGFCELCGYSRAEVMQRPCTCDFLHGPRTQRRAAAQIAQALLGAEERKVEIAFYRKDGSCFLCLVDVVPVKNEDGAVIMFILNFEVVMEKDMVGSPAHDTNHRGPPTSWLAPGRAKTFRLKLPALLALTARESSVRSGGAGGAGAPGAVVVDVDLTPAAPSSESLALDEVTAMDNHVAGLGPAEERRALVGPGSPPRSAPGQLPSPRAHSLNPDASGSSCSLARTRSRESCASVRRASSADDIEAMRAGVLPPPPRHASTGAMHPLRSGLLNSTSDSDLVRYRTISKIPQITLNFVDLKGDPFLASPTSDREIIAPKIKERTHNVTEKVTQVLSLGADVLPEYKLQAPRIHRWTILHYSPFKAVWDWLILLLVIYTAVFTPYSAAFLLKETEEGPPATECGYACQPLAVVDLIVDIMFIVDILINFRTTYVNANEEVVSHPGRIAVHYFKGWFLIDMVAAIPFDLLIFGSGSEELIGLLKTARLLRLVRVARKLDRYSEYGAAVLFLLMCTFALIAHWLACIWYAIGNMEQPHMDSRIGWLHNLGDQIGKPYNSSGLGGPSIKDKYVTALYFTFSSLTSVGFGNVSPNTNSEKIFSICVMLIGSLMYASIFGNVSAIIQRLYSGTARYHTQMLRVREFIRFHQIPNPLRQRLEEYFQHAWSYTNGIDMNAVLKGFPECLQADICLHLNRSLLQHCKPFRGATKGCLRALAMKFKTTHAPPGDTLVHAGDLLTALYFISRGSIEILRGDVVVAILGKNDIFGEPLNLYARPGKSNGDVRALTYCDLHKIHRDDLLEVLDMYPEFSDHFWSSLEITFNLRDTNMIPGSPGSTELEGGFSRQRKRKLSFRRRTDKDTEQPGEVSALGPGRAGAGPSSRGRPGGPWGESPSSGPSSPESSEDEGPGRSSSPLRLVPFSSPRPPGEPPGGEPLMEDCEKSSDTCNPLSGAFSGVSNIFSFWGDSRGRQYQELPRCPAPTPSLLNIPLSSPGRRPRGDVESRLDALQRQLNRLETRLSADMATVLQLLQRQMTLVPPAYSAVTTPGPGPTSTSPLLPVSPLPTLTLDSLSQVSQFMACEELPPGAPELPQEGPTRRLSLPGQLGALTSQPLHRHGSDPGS
Sequence of Cytochrome P450 2D6 (P10635 whole entry): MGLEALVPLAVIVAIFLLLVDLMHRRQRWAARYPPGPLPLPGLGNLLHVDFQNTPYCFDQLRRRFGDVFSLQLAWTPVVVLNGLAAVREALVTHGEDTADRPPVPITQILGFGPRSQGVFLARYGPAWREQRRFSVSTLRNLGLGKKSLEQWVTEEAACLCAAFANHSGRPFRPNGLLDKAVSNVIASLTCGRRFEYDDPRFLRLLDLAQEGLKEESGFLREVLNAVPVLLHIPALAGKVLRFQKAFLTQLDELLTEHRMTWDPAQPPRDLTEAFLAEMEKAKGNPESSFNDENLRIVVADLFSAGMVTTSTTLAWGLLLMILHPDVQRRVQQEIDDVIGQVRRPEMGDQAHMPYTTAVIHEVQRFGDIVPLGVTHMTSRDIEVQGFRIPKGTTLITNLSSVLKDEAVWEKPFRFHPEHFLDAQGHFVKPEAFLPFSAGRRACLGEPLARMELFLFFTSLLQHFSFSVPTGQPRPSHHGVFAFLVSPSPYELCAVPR
Sequence of Cytochrome P450 3A4 (P08684 whole entry): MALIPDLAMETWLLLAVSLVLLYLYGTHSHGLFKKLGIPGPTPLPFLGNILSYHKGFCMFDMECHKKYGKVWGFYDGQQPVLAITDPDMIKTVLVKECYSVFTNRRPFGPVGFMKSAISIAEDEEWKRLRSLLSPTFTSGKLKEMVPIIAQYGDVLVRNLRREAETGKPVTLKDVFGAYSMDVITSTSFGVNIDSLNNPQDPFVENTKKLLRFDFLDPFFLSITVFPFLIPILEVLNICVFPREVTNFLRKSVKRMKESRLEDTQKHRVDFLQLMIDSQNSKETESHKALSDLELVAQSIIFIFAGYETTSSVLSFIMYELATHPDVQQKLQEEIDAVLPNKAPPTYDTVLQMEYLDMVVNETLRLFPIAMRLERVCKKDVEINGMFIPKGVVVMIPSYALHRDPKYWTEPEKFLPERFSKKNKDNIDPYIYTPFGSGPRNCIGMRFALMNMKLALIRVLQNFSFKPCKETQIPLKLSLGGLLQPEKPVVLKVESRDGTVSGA

Compound | EC50 [2] [nM] | EC50 [3] [nM] | CC50 [4] [nM] | EC50 [5] [nM] | EC50 [7] [nM] | solubility [8] [µg/mL] | AUC(0-t) at 4 h [9] [µM·h] | Stability [10] [%] | concentration at 4 h [11] [nM] | Stability [12] [%] | concentration at 4 h [13] [nM] | concentration at 4 h [14] [nM] | clearance [15] [mL/min/kg] | AUC(0-t) at 4 h [16] [µM·h] | concentration at 4 h [17] [nM] | Papp [18] [×10⁻⁶ cm/s] | other results
COC[C@H]1CN(C(=O)[C@]23C[C@H]2c2cc(OC)ccc2-c2c(C4CCCCC4)c4ccc(C(=O)NS(=O)(=O)N(C)C)cc4n2C3)CCO1 | 36 | 6 | > 10000 | > 50000 | 12 |  |  |  |  |  |  |  |  |  |  |  | Ratio EC50 [1]: 3; Emax [6]: 12%
COc1ccc2c(c1)C1CC1(C(=O)N1CC(C)(O)C1)Cn1c-2c(C2CCCCC2)c2ccc(C(=O)NS(=O)(=O)N(C)C)cc21 (racemic) | 56 | 14 | > 10000 | > 50000 | 20 | 93 (≈ 150 µM) | 0.139 | 85 | 29 | 81 | 9600 | 3700 | 14 | 9.8 | 25 | 30 | 
CCN1CC2CC(C1)N2C(=O)[C@]12C[C@H]1c1cc(OC)ccc1-c1c(C3CCCCC3)c3ccc(C(=O)NS(=O)(=O)N(C)C)cc3n1C2 |  | 4 |  | > 50000 | 4 | 450 (≈ 682 µM) |  |  |  |  |  |  |  |  |  | 27 | EC50 [19]: 29000 nM; EC50 [20]: > 40000 nM; EC50 [21]: 6000 nM; EC50 [22]: > 40000 nM; EC50 [23]: 9000 nM; EC50 [24]: > 40000 nM; EC50 [25]: 19000 nM; EC50 [26]: > 40000 nM
COc1ccc2c(c1)C1CC1(C(=O)N1C[C@@H](C)N(C(C)=O)[C@@H](C)C1)Cn1c-2c(C2CCCCC2)c2ccc(C(=O)NS(=O)(=O)N(C)C)cc21 (mixture of isomers) | 35 | 24 | > 10000 | > 50000 | 38 | 17 (≈ 24.6 µM) | 0.277 | 93 | 9 | 100 | 126 | 345 | 37 | 3.84 | 14 | 48 | 
